The text below walks through data of patent publication US8871900B2, “Fibroblast growth factor (FGF) analogs and uses thereof” (University of Rochester, priority 2008, dated 2014).

Test [1] concerns FGFR on AsPC-1 pancreatic cancer epithelial cells. Briefly: Cell surface binding of biotin-FGF-P, imaging flow cytometry (Amnis Imagestream). On the procedure: Three preliminary experiments were carried out using FGF-P in vitro to confirm its activity. First, the biotin conjugated FGF-P was used as a tool to examine for cell surface binding. AsPC-1 pancreatic cancer epithelial cells are known to have high levels of FGFR and were used for this study. ASPC1 cells were incubated with 1 μg/ml of biotin-FGF-P and then labeled with streptavidin-FITC. The cells were then analyzed using an imaging flow cytometer (Amnis Imagestream). This device can image each cell as it passes through the laser, it can then sort cells according to both staining and morphological characteristics.
These clusters can be counted thus allowing for measurement of relative binding coefficients. To test the feasibility of binding coefficient measurement, competition experiments were performed. Free FGF-P (30 ug/ml) was added to cells for 20 min and then the biotin-FGF-P (1 μg/mL) was added. One hour later, the streptavidin-FITC was added and analyzed by flow cytometry. […] In a third test, a bioassay was performed. […]
Three preliminary experiments were carried out using FGF-P in vitro to confirm its activity. […] The cells were then analyzed using an imaging flow cytometer (Amnis Imagestream). […] These clusters were counted, allowing for measurement of relative binding coefficients. […] One hour later, streptavidin-FITC was added and analyzed by flow cytometry. […]

The test system of test [2] is BM progenitors. Briefly: BM progenitors (CD24, CD34) by flow cytometry after in vivo FGF-P. More on the design: species or system mouse. The note with it: in vivo administration following radiation. The source says:
To determine if the stem cells are better regenerated, freshly harvested BM cells were stained with CD24, CD34 (two critical markers for BM multi-potential progenitors) and TER119 (a marker for reticulcoytes), and then analyzed with flow cytometry. […] This is consistent with the above in vitro data. After IR, there appears a very active generation of BM progenitors, a rebound phenomenon, similar to the intestine crypts that actively regenerate following IR to compensate for lost villi.
A general note: A flow cytometer gives signals particle by particle.

A short description of test [3]: Stool hemoccult score after sub-TBI. The class given is in vivo, mouse (Balb/c, C57BL/6). The note with it: Balb/c, 12.5 Gy sub-TBI; FGF-P 2 mg/kg im 15 min post irradiation; Amifostine iv 30 min pre-irradiation; P<0.05. The source says: There are commonly employed assays known to be relevant to both mouse and man for determining relative endpoints. These include: 1) stool blood: mucosal barrier breakdown is associated with bleeding of the small bowel; therefore, a hemoccult analysis with a commercial kit (BD Cat #64151) was used in the preliminary data at 3 days after sub-TBI. The time course and frequency of GI bleeding; 2) stool formation: the GI functions of digestion, absorption of nutrition and water, and the regular movement of intestinal muscle are required for formation of normal stool can be measured. All these functions can be upset by radiation. For example, loss of villi leads to decreased fluid absorption and diarrhea. The colon was excised and examined visually for the presence of formed stool at 3.5 days post-IR; 3) endotoximia: bacterial translocation can occur at early times following gastrointestinal radiation exposure.
2) A standard scoring scale was used to evaluate stool formation (diarrhea). The bowel was extracted from the abdomen and visually inspected. Formed stool was easily distinguished from semi-solid and liquid stool as it passed from the ascending to descending colon. FIGS. 7B and 7C show the irradiated bowel in controls compared with FGF-P-treated Balb/c mice. The FGF-P was given at a dose of 2 mg/kg im for three daily doses beginning 15 min after irradiation. […]

Structures are written as SMILES. Peptide text beside a SMILES is read from it.

With `CC(C)C[C@H](NC(=O)[C@H](C)NC(=O)[C@@H](NC(=O)[C@H](Cc1ccc(O)cc1)NC(=O)[C@H](Cc1c[nH]c2ccccc12)NC(=O)[C@H](CO)NC(=O)[C@H](CO)NC(=O)[C@H](Cc1ccc(O)cc1)NC(=O)[C@H](CCCCN)NC(=O)[C@H](CCCNC(=N)N)NC(=O)[C@H](CO)NC(=O)[C@H](CCCNC(=N)N)NC(=O)[C@H](Cc1ccc(O)cc1)NC(=O)[C@@H](N)CS)C(C)C)C(=O)N[C@@H](CCCCN)C(=O)N[C@@H](CCCNC(=N)N)C(=O)N[C@@H](CS)C(=O)O` [FGF-P, CYRSRKYSSWYVALKRC] (H-CYRSRKYSSWYVALKRC-OH; N-terminus and C-terminus assumed), in test [1] (AsPC-1 cells, 1 μg/ml biotin-FGF-P, streptavidin-FITC), the cell surface binding result is “bound to the cell surface and causes the aggregation of FGFR”. In test [1] (free FGF-P 30 ug/ml for 20 min, then biotin-FGF-P 1 μg/mL), the “competition with biotin-FGF-P for cell surface binding” value is on record as “competed with biotin-FGF-P for cell surface binding”. The “number of BM progenitors (CD24, CD34)” value in test [2] is given as “increased the number of BM progenitors following radiation”. Moreover, the stool hemoccult score entry in test [3] is given as “reduced stool hemoccult score”.
